Assay results reported in PMC6936879, “Inhibiting the copper efflux system in microbes as a novel approach for developing antibiotics” (PLoS ONE, 2019).

Columns and labels:
E. coli (BL21) = assay: Kirby-Bauer test (disc diffusion); type: cell-based; conditions: 2 mm radius discs, LB petri dishes, 37 °C overnight
[1] = type: physicochemical; conditions: chemical stability; peptides diluted to 150 mM solution in double-distilled water, incubated at 37 °C for 24 h; ESI-MS spectra before and after incubation
Source text: We hypothesized that peptides would penetrate into E. coli and bind to CusB, interfere with its physiological dimerization, and thereby induce non-physiological structural changes or inhibit physiological structural changes in the transporter in response to extended levels of Cu(I). Thus, E. coli will lose its ability to be protected by copper-mediated oxidative stress, resulting in the death of the bacteria. Unlike CusB, CueO has homologs in human cells (Superoxide dismutase, SOD), and the main role in this study is to affect the CusCFBA efflux system regardless to CueO function, all measurements were carried out with an active CueO. First, we verified whether all ten peptides were stable under physiological conditions via incubation at 37°C for 24 h by ESI-MS analysis (Figs B to D in S1 File). Peptides 2–10 were stable under these given conditions, whereas peptide 1 was unstable.
Validation of the peptides stability using ESI-MS
In order to confirm the stability of the peptides, them were diluted to 150 mM solution in double-distilled
water, then incubated at 37 °C for 24 hr.
S2 before the incubation (Figure S2A) and after the incubation (Figure S2B). All peptides besides pep1
Fig B: ESI-MS. ESI-MS spectra for pep1 and pep2, left panel presents the spectra after peptide
(1 picture or pasted object on this page, not shown here)

E. coli (BL21;DE3) [2] = assay: E. coli growth rate experiment (O.D. 600 nm) under copper stress; type: cell-based; conditions: M9 medium, 37 °C, value after 14 h incubation, 5 μM Cu(II) chloride in assay (sentence does not say with or without Cu(II)), mean ± SE, n = 5
Method: E. coli (BL21;DE3) growth rates were evaluated in 96-well microplates: in 200 μl of a poor medium comprising M9 medium. Incubation was for 16 h at 37°C with Copper(II) chloride (Sigma-Aldrich, St. Louis, MO, USA) at a concentration of 5 μM. Absorbance at 600 nm was measured every 30 min after stirring for 5 s in a 96-well plate reader (SPL Life Sciences, Gyeonggi, Korea). The buffer background was auto-subtracted. Each experiment was repeated five times under identical conditions.
Next, E. coli were grown in M9 medium for 16 h, and their growth rate was evaluated in the absence and presence of Cu(II) in the medium. In each sample, a different peptide was introduced to the medium, with the kanamycin as a positive control. […] Growth rate values for all peptides at various concentrations after 14 h of incubation are presented in Fig 3 (the growth rate curves are presented in Figs E to F in S1 File).
Fig 3 Effect of test peptides on the E. coli growth rate. E. coli cultures were grown as described in Methods. The growth rate values after a 14 h incubation in the medium in the presence (gray lines) and absence (black lines) of Cu(II). Concentrations of the test peptides: A. 50 μM, B. 75 μM, C. 100 μM, and D. 125 μM. *p < 0.05, MEAN ± SE, n = 5, a comparison between the values in the presence and absence of Cu(II). #p < 0.05, MEAN ± SE, n = 5, in the presence of Cu(II) and comparing between values of a buffer and peptide. t-test was used for the statistic evaluation.

E. coli (BL21;DE3) [3] = assay: E. coli viability assay (LIVE/DEAD fluorescence imaging); type: cell-based; conditions: peptide 125 μM; LIVE/DEAD staining, M9 medium, confocal imaging, cell counts with ImageJ; mean ± SE, n = 3
Method: E. coli (BL21;DE3) were dyed using the L7007 LIVE/DEAD Bacterial Viability kit (Molecular Probes, Eugene OR, USA); microbes were grown in M9 medium. Images were acquired on a Leica SP8 confocal microscope, running LASX acquisition software. The magnification consisted of a 63 X 1.4 NA objective. Microbes were counted using ImageJ software. Error calculations were based on three repetitions, with each experiment scanned at nine different tiles—all together, 27 repetitions.
Live/dead fluorescence cell imaging experiments were used to indicate bacterial viability when incubated with the peptides. This method also helped to determine whether the decrease in the growth rate described above resulted from deceleration in E. coli growth or its substantial death. E coli were grown to the late […] phase (according to the growth rate lines; Figs B to D in S1 File) in the presence of the peptides in poor medium (M9), which mostly resembles physiological conditions.[52–54] Glucose levels in the growth media were sufficient to prevent bacterial viability loss due to lack of nutrition, yet not too high to positively affect its viability. […] However, the effect of the peptides was not as substantial as the commercially available antibiotic kanamycin. […] 5 ± 4.3% and up to 45.3 ± 4.3% reduction at a concentration of 125 μM.
Fig 4 Effect of the test peptides on E. coli viability. […]

[4] = disc solution 50 µM in 0.85% NaCl
[5] = disc solution 75 µM in 0.85% NaCl
[6] = disc solution 100 µM in 0.85% NaCl
[7] = disc solution 125 µM in 0.85% NaCl

With `NC[C@H]1O[C@H](O[C@H]2[C@H](O)[C@@H](O[C@H]3O[C@H](CO)[C@@H](O)[C@H](N)[C@H]3O)[C@H](N)C[C@@H]2N)[C@H](O)[C@@H](O)[C@@H]1O` [Kanamycin, kanamycin, reference compound] the “r, radius of bacteria killing formed over petri dishes by peptide-solution discs” value (E. coli (BL21); [4]) was 2.5 mm, the “r, radius of bacteria killing formed over petri dishes by peptide-solution discs” value (E. coli (BL21); [5]) was 2.5 mm and the “r, radius of bacteria killing formed over petri dishes by peptide-solution discs” value (E. coli (BL21); [6]) was 2.5 mm. For the same molecule, the “r, radius of bacteria killing formed over petri dishes by peptide-solution discs” value (E. coli (BL21); [7]) was 2.5 mm.

In the case of DPVWVTA [pep4], the “r, radius of bacteria killing formed over petri dishes by peptide-solution discs” value (E. coli (BL21); [4]) is reported as 0 mm, the “r, radius of bacteria killing formed over petri dishes by peptide-solution discs” value (E. coli (BL21); [5]) is reported as 0 mm and the “r, radius of bacteria killing formed over petri dishes by peptide-solution discs” value (E. coli (BL21); [6]) is reported as 0 mm. For the same molecule, the “r, radius of bacteria killing formed over petri dishes by peptide-solution discs” value (E. coli (BL21); [7]) was 0 mm.

With MDPV [pep9] the “r, radius of bacteria killing formed over petri dishes by peptide-solution discs” value (E. coli (BL21); [4]) was 0 mm, the “r, radius of bacteria killing formed over petri dishes by peptide-solution discs” value (E. coli (BL21); [5]) was 0.5 mm and the “r, radius of bacteria killing formed over petri dishes by peptide-solution discs” value (E. coli (BL21); [6]) was 0.5 mm. The “r, radius of bacteria killing formed over petri dishes by peptide-solution discs” value (E. coli (BL21); [7]) was 1.5 mm.

In the case of GMDPVW [pep6], the “r, radius of bacteria killing formed over petri dishes by peptide-solution discs” value (E. coli (BL21); [4]) is reported as 0 mm, the “r, radius of bacteria killing formed over petri dishes by peptide-solution discs” value (E. coli (BL21); [5]) is reported as 0 mm and the “r, radius of bacteria killing formed over petri dishes by peptide-solution discs” value (E. coli (BL21); [6]) is reported as 0 mm. The “r, radius of bacteria killing formed over petri dishes by peptide-solution discs” value (E. coli (BL21); [7]) was 0 mm.

In the case of “AKIQGMDPVWVTA [pep1, 13-amino acid parent peptide […] mimicking CusB residues 236-248]”, the “stability under physiological conditions (ESI-MS)” value [1] is reported as “unstable”.

For VWVTA [pep7], the “r, radius of bacteria killing formed over petri dishes by peptide-solution discs” value (E. coli (BL21); [4]) was 0 mm, the “r, radius of bacteria killing formed over petri dishes by peptide-solution discs” value (E. coli (BL21); [5]) was 0 mm and the “r, radius of bacteria killing formed over petri dishes by peptide-solution discs” value (E. coli (BL21); [6]) was 0 mm. For the same molecule, the “r, radius of bacteria killing formed over petri dishes by peptide-solution discs” value (E. coli (BL21); [7]) was 0 mm.

With KIQGMDPVWVT [pep2] the “r, radius of bacteria killing formed over petri dishes by peptide-solution discs” value (E. coli (BL21); [4]) was 0 mm, the “r, radius of bacteria killing formed over petri dishes by peptide-solution discs” value (E. coli (BL21); [5]) was 0 mm and the “r, radius of bacteria killing formed over petri dishes by peptide-solution discs” value (E. coli (BL21); [6]) was 0 mm. For the same molecule, the “r, radius of bacteria killing formed over petri dishes by peptide-solution discs” value (E. coli (BL21); [7]) was 0 mm.

With IQGMD [pep5] the “decrease in O.D. (600 nm)” value (E. coli (BL21;DE3) [2]; peptide 50 μM) was 54.5 ± 4.2%, the “decrease in O.D. (600 nm)” value (E. coli (BL21;DE3) [2]; peptide 100 μM) was 77.2 ± 6.4% and the “reduction of bacterial viability” value (E. coli (BL21;DE3) [3]) was 45.3 ± 4.3%. For the same molecule, the “r, radius of bacteria killing formed over petri dishes by peptide-solution discs” value (E. coli (BL21); [4]) was 0 mm, the “r, radius of bacteria killing formed over petri dishes by peptide-solution discs” value (E. coli (BL21); [5]) was 0.5 mm and the “r, radius of bacteria killing formed over petri dishes by peptide-solution discs” value (E. coli (BL21); [6]) was 1 mm. The “r, radius of bacteria killing formed over petri dishes by peptide-solution discs” value (E. coli (BL21); [7]) was 2 mm.

With PVWV [pep10] the “r, radius of bacteria killing formed over petri dishes by peptide-solution discs” value (E. coli (BL21); [4]) was 0 mm, the “r, radius of bacteria killing formed over petri dishes by peptide-solution discs” value (E. coli (BL21); [5]) was 0 mm and the “r, radius of bacteria killing formed over petri dishes by peptide-solution discs” value (E. coli (BL21); [6]) was 0.5 mm. The “r, radius of bacteria killing formed over petri dishes by peptide-solution discs” value (E. coli (BL21); [7]) was 1.5 mm.

For AKIQGM [pep3], the “r, radius of bacteria killing formed over petri dishes by peptide-solution discs” value (E. coli (BL21); [4]) was 0 mm, the “r, radius of bacteria killing formed over petri dishes by peptide-solution discs” value (E. coli (BL21); [5]) was 0 mm and the “r, radius of bacteria killing formed over petri dishes by peptide-solution discs” value (E. coli (BL21); [6]) was 0 mm. The “r, radius of bacteria killing formed over petri dishes by peptide-solution discs” value (E. coli (BL21); [7]) was 0 mm.
